The results in this text go back to patent US11420969B2 (Exonate Limited, priority 2017, dated 2022).

One assay concerns the target SRPK1 (Homo sapiens, UniProt Q96SB4). The assay is described as follows: In vitro SRPK1 assay (Kinase-Glo). In kind it is biochemical. In general terms: Kinase-Glo measures the ATP left after a reaction by luminescence.
The next assay has as its target T1, CYP1A2 (Homo sapiens, UniProt P05177).
T1 construct: from tissue; host or cells: human liver microsomes
T1 sequence (P05177 1-516): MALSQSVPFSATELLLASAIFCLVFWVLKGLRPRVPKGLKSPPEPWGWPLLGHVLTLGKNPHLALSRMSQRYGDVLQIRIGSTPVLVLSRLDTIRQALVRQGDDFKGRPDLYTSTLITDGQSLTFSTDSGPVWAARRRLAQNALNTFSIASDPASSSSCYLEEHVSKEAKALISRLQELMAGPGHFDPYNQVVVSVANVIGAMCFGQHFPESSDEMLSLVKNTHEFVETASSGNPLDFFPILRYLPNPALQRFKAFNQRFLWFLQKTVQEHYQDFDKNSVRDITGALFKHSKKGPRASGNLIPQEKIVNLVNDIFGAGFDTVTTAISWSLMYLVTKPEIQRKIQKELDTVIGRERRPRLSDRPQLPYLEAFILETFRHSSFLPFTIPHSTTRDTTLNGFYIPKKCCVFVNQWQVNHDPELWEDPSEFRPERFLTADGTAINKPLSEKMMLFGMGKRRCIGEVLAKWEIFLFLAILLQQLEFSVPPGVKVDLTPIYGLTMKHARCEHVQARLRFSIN
The assay is described as follows: CYP inhibition assay, human liver microsomes, substrate tacrine. In kind it is in vitro ADME. The note with it: human liver microsomes, 10 min incubation, LC-MS/MS; read-out: CYP Inhibition Activity (IC50/nM) CYP1A2. The procedure: (§1) 2 μL of test compound/Positive Inhibitor working solutions is then added to the reaction plate (2 μL/well). For control, 2 μL of Acetonitrile (ACN) containing DMSO (without inhibitor) is added to the reaction plate. 20 μL of substrate pool is added to all the wells of the reaction plate. The samples are mixed in a vortexer and pre-incubated at 37° C. for 20 min. The NADPH solution is pre-warmed at 37° C. for 5 min. 20 μL of pre-warmed NADPH solution is added to the reaction plate and then incubated at 37° C. for 10 min. The reaction is terminated by adding cold ACN (200 μL/well) to the reaction mixture and centrifuging at 4,000 rpm for 20 minutes. After centrifugation, supernatant is separated and analyzed by LC-MS/MS.
(§2) % inhibition and IC50 are calculated using Graphpad Prism software.

The next assay deals with T2, CYP2C19 (Homo sapiens, UniProt P33261).
T2 construct: from tissue; host or cells: human liver microsomes
The assay is described as follows: CYP inhibition assay, human liver microsomes, substrate S-mephenytoin. In kind it is in vitro ADME. Conditions: human liver microsomes, 10 min incubation, LC-MS/MS; read-out: CYP Inhibition Activity (IC50/nM) CYP2C19. The procedure: as §1, §2
On the technique in general: Liver microsomes are a subcellular fraction often used to study metabolism.

The next assay has as its target T3, CYP3A4 (Homo sapiens, UniProt P08684).
T3 construct: from tissue; host or cells: human liver microsomes
Nature of the assay: CYP inhibition assay, human liver microsomes, substrate midazolam. The format is in vitro ADME. Conditions: human liver microsomes, 10 min incubation, LC-MS/MS; read-out: CYP Inhibition Activity (IC50/nM) CYP3A4. The procedure: as §1, §2

Another assay addresses T4, CYP2D6 (Homo sapiens, UniProt P10635).
T4 construct: from tissue; host or cells: human liver microsomes
Nature of the assay: biochemical. In kind it is in vitro ADME. The procedure:
158 μL of Human Liver Microsomes working stock solution is added to a reaction plate (0.253 mg/mL, 158 μL/well). 2 μL of test compound/Positive Inhibitor working solutions is then added to the reaction plate (2 μL/well). For control, 2 μL of Acetonitrile (ACN) containing DMSO (without inhibitor) is added to the reaction plate. 20 μL of substrate pool is added to all the wells of the reaction plate. The samples are mixed in a vortexer and pre-incubated at 37° C. for 20 min. The NADPH solution is pre-warmed at 37° C. for 5 min. 20 μL of pre-warmed NADPH solution is added to the reaction plate and then incubated at 37° C. for 10 min. The reaction is terminated by adding cold ACN (200 μL/well) to the reaction mixture and centrifuging at 4,000 rpm for 20 minutes. After centrifugation, supernatant is separated and analyzed by LC-MS/MS.
as §2

The target of another assay is T5, CYP2C9 (Homo sapiens, UniProt P11712).
T5 construct: from tissue; host or cells: human liver microsomes
Nature of the assay: CYP inhibition assay, human liver microsomes, substrate diclofenac. The format is in vitro ADME. The note with it: human liver microsomes, 10 min incubation, LC-MS/MS; read-out: CYP Inhibition Activity (IC50/nM) CYP2C9. The procedure:
as §1, §2

T5 sequence (P11712 whole entry): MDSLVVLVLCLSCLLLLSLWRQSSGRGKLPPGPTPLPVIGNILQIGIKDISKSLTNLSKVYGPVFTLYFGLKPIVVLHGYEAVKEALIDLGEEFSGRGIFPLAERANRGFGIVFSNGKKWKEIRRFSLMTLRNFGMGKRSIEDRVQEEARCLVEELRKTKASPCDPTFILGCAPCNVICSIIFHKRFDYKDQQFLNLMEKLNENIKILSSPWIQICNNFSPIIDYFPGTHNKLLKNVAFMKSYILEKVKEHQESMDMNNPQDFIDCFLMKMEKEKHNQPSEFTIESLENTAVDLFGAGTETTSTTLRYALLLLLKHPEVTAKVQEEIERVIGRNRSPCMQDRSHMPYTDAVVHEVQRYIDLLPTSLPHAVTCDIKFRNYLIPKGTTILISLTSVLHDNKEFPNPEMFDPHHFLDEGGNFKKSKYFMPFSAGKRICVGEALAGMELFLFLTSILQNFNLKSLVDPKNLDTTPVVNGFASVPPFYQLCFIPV
T4 sequence (P10635 whole entry): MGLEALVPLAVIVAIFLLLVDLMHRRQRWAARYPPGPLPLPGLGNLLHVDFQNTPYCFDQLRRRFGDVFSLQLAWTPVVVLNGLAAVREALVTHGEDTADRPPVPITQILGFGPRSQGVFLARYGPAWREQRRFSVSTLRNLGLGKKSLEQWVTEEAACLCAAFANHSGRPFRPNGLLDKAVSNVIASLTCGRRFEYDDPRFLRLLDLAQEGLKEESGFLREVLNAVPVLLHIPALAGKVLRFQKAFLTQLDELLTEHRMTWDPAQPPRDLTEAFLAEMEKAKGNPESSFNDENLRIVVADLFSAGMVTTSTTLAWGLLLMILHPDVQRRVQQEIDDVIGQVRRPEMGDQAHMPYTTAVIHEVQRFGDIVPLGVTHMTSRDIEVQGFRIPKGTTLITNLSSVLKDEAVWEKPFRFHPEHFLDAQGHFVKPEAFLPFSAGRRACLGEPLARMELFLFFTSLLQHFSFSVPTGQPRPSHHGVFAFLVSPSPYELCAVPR
Chain of SRPK1 (Q96SB4 whole entry, species assumed): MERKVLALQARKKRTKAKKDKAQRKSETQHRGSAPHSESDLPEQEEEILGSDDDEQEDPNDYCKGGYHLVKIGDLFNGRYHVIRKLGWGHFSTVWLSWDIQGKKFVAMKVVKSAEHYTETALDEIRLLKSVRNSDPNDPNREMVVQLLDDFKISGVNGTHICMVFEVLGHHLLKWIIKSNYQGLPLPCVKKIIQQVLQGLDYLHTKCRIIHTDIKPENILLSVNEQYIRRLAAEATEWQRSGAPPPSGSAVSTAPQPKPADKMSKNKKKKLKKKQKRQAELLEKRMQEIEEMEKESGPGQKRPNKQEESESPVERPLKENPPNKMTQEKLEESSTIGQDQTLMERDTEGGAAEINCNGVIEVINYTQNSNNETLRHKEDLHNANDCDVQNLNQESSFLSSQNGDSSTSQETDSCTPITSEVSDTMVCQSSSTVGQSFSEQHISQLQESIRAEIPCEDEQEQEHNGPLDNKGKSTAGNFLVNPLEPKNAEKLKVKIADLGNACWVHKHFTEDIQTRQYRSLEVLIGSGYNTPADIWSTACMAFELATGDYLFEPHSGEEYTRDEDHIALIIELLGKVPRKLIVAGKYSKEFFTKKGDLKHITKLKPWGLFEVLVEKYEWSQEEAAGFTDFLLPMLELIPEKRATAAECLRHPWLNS
T2 sequence (P33261 whole entry): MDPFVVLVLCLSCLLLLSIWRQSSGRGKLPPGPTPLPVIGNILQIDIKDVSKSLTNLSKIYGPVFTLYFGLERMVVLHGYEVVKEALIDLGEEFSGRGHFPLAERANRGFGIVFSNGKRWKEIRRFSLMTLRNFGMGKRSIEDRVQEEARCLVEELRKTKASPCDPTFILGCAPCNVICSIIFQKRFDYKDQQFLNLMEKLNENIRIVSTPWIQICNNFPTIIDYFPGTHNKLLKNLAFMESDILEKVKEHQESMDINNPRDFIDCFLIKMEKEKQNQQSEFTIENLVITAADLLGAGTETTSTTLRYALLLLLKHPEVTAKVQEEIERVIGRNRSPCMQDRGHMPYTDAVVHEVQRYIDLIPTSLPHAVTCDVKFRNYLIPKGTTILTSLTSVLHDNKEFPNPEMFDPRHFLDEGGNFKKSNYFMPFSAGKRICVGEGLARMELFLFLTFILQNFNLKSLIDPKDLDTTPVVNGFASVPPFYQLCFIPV
T3 sequence (P08684 whole entry): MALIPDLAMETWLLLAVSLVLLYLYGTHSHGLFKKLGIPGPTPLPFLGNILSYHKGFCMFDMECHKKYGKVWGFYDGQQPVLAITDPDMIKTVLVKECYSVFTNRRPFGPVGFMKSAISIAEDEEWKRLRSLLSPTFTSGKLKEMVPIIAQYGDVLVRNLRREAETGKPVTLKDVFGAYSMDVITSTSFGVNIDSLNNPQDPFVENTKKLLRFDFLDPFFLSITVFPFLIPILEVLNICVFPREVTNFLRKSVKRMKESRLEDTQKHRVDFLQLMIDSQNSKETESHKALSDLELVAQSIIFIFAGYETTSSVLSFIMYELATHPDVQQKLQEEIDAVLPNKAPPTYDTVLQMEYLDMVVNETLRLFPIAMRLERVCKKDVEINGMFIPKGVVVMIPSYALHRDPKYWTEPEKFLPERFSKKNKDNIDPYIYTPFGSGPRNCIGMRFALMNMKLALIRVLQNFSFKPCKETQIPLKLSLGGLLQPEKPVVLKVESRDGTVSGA

For the compound `CC1(CN2CCCC2)CCN(c2ccc(C(F)(F)F)cc2NC(=O)c2ccc(C3CCOCC3)o2)CC1` [Example 95, N-(2-(4-methyl-4-(pyrrolidin-1-ylmethyl)piperidin-1-yl)-5-(trifluoromethyl)phenyl)-5-(tetrahydro-2H-pyran-4-yl)furan-2-carboxamide], the IC50 is 24 nM against SRPK1; over 30000 nM at CYP1A2; over 30000 nM at CYP2C19; 7300 nM on CYP3A4; 0.4 µM against CYP2D6; 10100 nM on CYP2C9.

Turning to `Cc1ccc(N2CCC(C)(O)CC2)c(NC(=O)c2ccc(C3CCOCC3)o2)c1` [Example 13, N-(2-(4-hydroxy-4-methylpiperidin-1-yl)-5-methylphenyl)-5-(tetrahydro-2H-pyran-4-yl)furan-2-carboxamide], the IC50 against SRPK1 was 17.4 nM; at CYP1A2, over 30000 nM; on CYP2C19, 15100 nM; at CYP3A4, 23200 nM; against CYP2D6 it was over 30 µM; at CYP2C9, 7600 nM.

With `CC1(O)CCN(c2ccc(C(F)(F)F)cc2NC(=O)c2ccc(C3CCOCC3)o2)C1` (racemic) [Example 54, N-(2-(3-hydroxy-3-methylpyrrolidin-1-yl)-5-(trifluoromethyl)-phenyl)-5-(tetrahydro-2H-pyran-4-yl)furan-2-carboxamide], the IC50 against SRPK1 was 35 nM; at CYP1A2, over 30000 nM; at CYP2C19, 6140 nM; at CYP3A4, 20900 nM; against CYP2D6, 7.14 µM; on CYP2C9, 6350 nM.

Regarding `CC1(O)CCN(c2ccc(OC(F)(F)F)cc2NC(=O)c2ccc(-c3ccncc3)o2)CC1` [Example 10, N-(2-(4-hydroxy-4-methylpiperidin-1-yl)-5-(trifluoromethoxy)phenyl)-5-(pyridin-4-yl)furan-2-carboxamide], the IC50 came out at 6 nM on SRPK1; 14400 nM at CYP1A2; 2670 nM on CYP2C19; 3780 nM at CYP3A4; 5.42 µM against CYP2D6; 1770 nM at CYP2C9.

Consider `CC1(C(=O)N2CCCC2)CCN(c2ccc(C(F)(F)F)cc2NC(=O)c2ccc(C3CCOCC3)o2)CC1` [Example 88, N-(2-(4-methyl-4-(pyrrolidine-1-carbonyl)-piperidin-1-yl)-5-(trifluoromethyl)-phenyl)-5-(tetrahydro-2H-pyran-4-yl)furan-2-carboxamide], for which the IC50 against SRPK1 is 11 nM; on CYP1A2 it was over 30000 nM; at CYP2C19 it was 4600 nM; at CYP3A4 it was 1000 nM; against CYP2D6, 10.3 µM; at CYP2C9, 300 nM.

Take `CC1(O)CCN(c2ccc(C3CC3)cc2NC(=O)c2ccc(C3CCOCC3)o2)CC1` [Example 17, N-(5-cyclopropyl-2-(4-hydroxy-4-methylpiperidin-1-yl)phenyl)-5-(tetrahydro-2H-pyran-4-yl)furan-2-carboxamide]: the IC50 at SRPK1 was 2 nM; on CYP1A2, over 30000 nM; on CYP2C19, 9570 nM; at CYP3A4, 15200 nM; at CYP2D6 it was over 30 µM; at CYP2C9, 3770 nM.

In the case of `CC1CCN(c2ccc(C(F)(F)F)cc2NC(=O)c2ccc(C3CCOCC3)o2)CC1` [Example 35, N-(2-(4-methylpiperidin-1-yl)-5-(trifluoromethyl)-phenyl)-5-(tetrahydro-2H-pyran-4-yl)furan-2-carboxamide], the IC50 on SRPK1 was 56.1 nM; on CYP1A2, 4700 nM; at CYP2C19, 27800 nM; at CYP3A4, over 30000 nM; against CYP2D6, over 30 µM; at CYP2C9 it was over 30000 nM.

As to `CC1(O)CCN(c2ccc(C3CC3)cc2NC(=O)c2ccccn2)CC1` [Example 3, N-(5-cyclopropyl-2-(4-hydroxy-4-methylpiperidin-1-yl)phenyl)-picolinamide], the IC50 against SRPK1 is 19 nM; at CYP1A2 it was 14400 nM; on CYP2C19 it was 7160 nM; on CYP3A4 it was 17100 nM; on CYP2D6, over 30 µM; on CYP2C9, 12000 nM.

Turning to `CC1(C)CCN(c2ccc(C3CC3)cc2NC(=O)c2ccc(C3CCOCC3)o2)CC1` [Example 64, N-(5-cyclopropyl-2-(4,4-dimethylpiperidin-1-yl)phenyl)-5-(tetrahydro-2H-pyran-4-yl)furan-2-carboxamide], the IC50 against SRPK1 was 5.6 nM; on CYP1A2, over 30000 nM; at CYP2C19 it was over 30000 nM; at CYP3A4, over 30000 nM; against CYP2D6 it was over 30 µM; at CYP2C9 it was 15800 nM.

As to `C[C@@]1(O)CCN(c2ccc(C(F)(F)F)cc2NC(=O)c2ccc(C3CCOCC3)o2)C1` [Example 50, (R)-N-(2-(3-hydroxy-3-methylpyrrolidin-1-yl)-5-(trifluoromethyl)phenyl)-5-(tetrahydro-2H-pyran-4-yl)furan-2-carboxamide], the IC50 against SRPK1 was 28.8 nM; at CYP1A2, 5300 nM; at CYP2C19, 24500 nM; at CYP3A4 it was over 30000 nM; against CYP2D6, over 30 µM; at CYP2C9 it was 9000 nM.

Take `CN(C)C(=O)C1(C)CCN(c2ccc(C3CC3)cc2NC(=O)c2ccc(C3CCOCC3)o2)CC1` [Example 86, 1-(4-cyclopropyl-2-(5-(tetrahydro-2H-pyran-4-yl)furan-2-carboxamido)phenyl)-N,N,4-trimethyl-piperidine-4-carboxamide]: the IC50 is 9 nM against SRPK1; over 30000 nM at CYP1A2; 4100 nM at CYP2C19; 1100 nM at CYP3A4; 19.2 µM on CYP2D6; 200 nM at CYP2C9.

For `O=C(Nc1cc(C(F)(F)F)ccc1N1CCC(O)(c2ccccc2)CC1)c1ccc(C2CCOCC2)o1` [Example 22, N-(2-(4-hydroxy-4-phenylpiperidin-1-yl)-5-(trifluoromethyl)-phenyl)-5-(tetrahydro-2H-pyran-4-yl)furan-2-carboxamide], the IC50 at SRPK1 was 35 nM; at CYP1A2 it was 15300 nM; on CYP2C19, 12300 nM; on CYP3A4 it was 18800 nM; at CYP2D6 it was over 30 µM; at CYP2C9, 12700 nM.

For `CNC(=O)C1(C)CCN(c2ccc(C(F)(F)F)cc2NC(=O)c2ccc(C3CCOCC3)o2)CC1` [Example 76, N,4-dimethyl-1-(2-(5-(tetrahydro-2H-pyran-4-yl)furan-2-carboxamido)-4-(trifluoromethyl)-phenyl)piperidine-4-carboxamide], the IC50 is 3.2 nM on SRPK1; over 30000 nM on CYP1A2; 4250 nM at CYP2C19; 750 nM at CYP3A4; 8.68 µM on CYP2D6; 1700 nM at CYP2C9.

`O=C(Nc1cc(Cl)ccc1N1CCCC(O)CC1)c1ccc(C2CCOCC2)o1` (racemic) [Example 48, N-(5-chloro-2-(4-hydroxyazepan-1-yl)phenyl)-5-(tetrahydro-2H-pyran-4-yl)furan-2-carboxamide]: the IC50 worked out at 15 nM against SRPK1; 16800 nM at CYP1A2; 6000 nM at CYP2C19; 21100 nM at CYP3A4; 15.7 µM against CYP2D6; 10300 nM at CYP2C9.

Consider `COc1ccc(N2CCC(C)(O)CC2)c(NC(=O)c2ccc(-c3ccncc3)o2)c1` [Example 9, N-(2-(4-hydroxy-4-methylpiperidin-1-yl)-5-methoxyphenyl)-5-(pyridin-4-yl)furan-2-carboxamide], for which the IC50 on SRPK1 stood at 4.4 nM; at CYP1A2, 4990 nM; at CYP2C19, 890 nM; at CYP3A4, 360 nM; on CYP2D6, 5.1 µM; on CYP2C9, 350 nM.
